In patent US9393221B2, “Methods and compounds for reducing intracellular lipid storage” (THE GENERAL HOSPITAL CORPORATION, priority 2011, dated 2016):
Counter-ions that a name gives are not always drawn.
Wherever Z-score is given: test concentration or dose not given here.

Each molecule was assayed on ATGL-KO iPSCs (assay: High throughput iPSC chemical screening, Oil Red O (ORO) lipid accumulation). Settings: not given.
Assay type: cell-based, mouse
With `CNCCC(Oc1ccccc1OC)c1ccccc1` (stereo not shown) [Nisoxetine hydrochloride] the Z-score was −1.699. `CC(C)(C)CC(C)(C)c1ccc(OCCOCC[N+](C)(C)Cc2ccccc2)cc1` [Benzethonium chloride] gave a Z-score of 8.105.

Same assay, conditions: glycolytic switch compounds
For `CCCCOC(=O)c1ccc(O)cc1` [Butylparaben], the “Rank in normalized ORO score from screen” value was 23. With `CCN(CC)CCOc1ccc(C(=C(Cl)c2ccccc2)c2ccccc2)cc1.O=C(O)CC(O)(CC(=O)O)C(=O)O` [Clomiphene citrate (Z,E), reference compound] the “Rank in normalized ORO score from screen” value was 928. In the case of `Clc1ccc(C(Cn2ccnc2)OCc2csc3c(Cl)cccc23)c(Cl)c1` (stereo not shown) [Sertaconazole nitrate], the “Rank in normalized ORO score from screen” value is reported as 464. In the case of `CC/C(=C(\c1ccccc1)c1ccc(OCCN(C)C)cc1)c1ccccc1` [Tamoxifen citrate], the “Rank in normalized ORO score from screen” value is reported as 130. For `Clc1ccccc1C(c1ccccc1)(c1ccccc1)n1ccnc1` [Clotrimazole], the “Rank in normalized ORO score from screen” value was 37.

Same assay, conditions: normalized ORO level vs DMSO-treated cells; compound present during 7 days differentiation, 96-well; negative = decrease in lipid accumulation
In the case of `COc1ccc2c(OC)c3ccoc3nc2c1OC` [Skimmianine], the Z-score is reported as −1.2252. With `COc1ccc2c3c([nH]c2c1)[C@H]1C[C@H]2[C@H](C[C@@H](O)[C@H](OC)[C@H]2C(=O)O)CN1CC3.Cl` [Reserpinic acid hydrochloride] the Z-score was −1.3417. Work on `CCCCOC(=O)c1ccc(O)cc1` [Butylparaben] yielded a Z-score of −1.7629. For `CCN(CC)CCOc1ccc(C(=C(Cl)c2ccccc2)c2ccccc2)cc1.O=C(O)CC(O)(CC(=O)O)C(=O)O` [Clomiphene citrate (Z,E), reference compound], the Z-score was 1.107. `CN(C)CCC(c1ccc(Cl)cc1)c1ccccn1` (stereo not shown) [Chlorpheniramine maleate] gave a Z-score of −0.5399. Molecule `NNCCc1ccccc1` [Phenelzine sulfate] has a Z-score of 0.6672. `CCCCNc1cc(C(=O)O)cc(S(N)(=O)=O)c1Oc1ccccc1` [Bumetanide] was tested, and the Z-score was −1.3983. Clofilium tosylate showed a Z-score of 13.6063. `O=C(O)/C=C/c1ccc(Cn2ccnc2)cc1` [Ozagrel hydrochloride] showed a Z-score of −0.6787. `Cc1cccc(N(C)C(=S)Oc2ccc3ccccc3c2)c1` [Tolnaftate] gave a Z-score of 0.2441. With `O=C(O)c1ccccc1C(=O)Nc1ccc(S(=O)(=O)Nc2nccs2)cc1` [Phthalylsulfathiazole] the Z-score was −1.0074. With `Nc1nc(O)c2ncn(COC(CO)CO)c2n1` [Ganciclovir] the Z-score was −0.9945. Molecule `CCCCC[C@H](O)/C=C/[C@@H]1[C@@H](C/C=C\CCCC(=O)O)[C@@H](O)C[C@H]1O` [Dinoprost trometamol] has a Z-score of 0.7612. `NC[C@H]1O[C@H](O[C@H]2[C@H](O)[C@@H](O[C@H]3O[C@H](CO)[C@@H](O)[C@H](N)[C@H]3O)[C@H](N)C[C@@H]2N)[C@H](N)C[C@@H]1O` [Tobramycin] was tested, and the Z-score was 1.694. Molecule `Clc1ccccc1CN1CCc2sccc2C1` [Ticlopidine hydrochloride] has a Z-score of −1.0702. Work on `Cc1c(Nc2ncccc2C(=O)O)cccc1C(F)(F)F` [Flunixin meglumine] yielded a Z-score of −1.0122. Work on `CN1Cc2c(ccc3c2OCO3)C2C(O)Cc3cc4c(cc3C21)OCO4` (stereo not drawn) [Chelidonine (+)] yielded a Z-score of 16.9912. `CC[C@@]1([C@@H]2O[C@@H]([C@H]3O[C@@](O)(CO)[C@H](C)C[C@@H]3C)C[C@@H]2C)CC[C@H]([C@]2(C)CC[C@]3(C[C@H](O)[C@@H](C)[C@@H]([C@@H](C)[C@@H](OC)[C@H](C)C(=O)O)O3)O2)O1` [Monensin sodium salt] gave a Z-score of 18.1768. In the case of `CC(C)NCC(O)c1ccc(O)c(O)c1.Cl` (single isomer, unassigned; (-)) [(−)-Isoproterenol hydrochloride], the Z-score is reported as 4.267. `CC(=O)OCC(=O)[C@H]1CC[C@H]2[C@@H]3CC[C@H]4C[C@H](O)CC[C@]4(C)[C@H]3C(=O)C[C@]12C` [Alfadolone acetate] gave a Z-score of −0.4554. Molecule `CN(C)[C@@H]1C(O)=C(C(N)=O)C(=O)[C@@]2(O)C(O)=C3C(=O)c4c(O)cccc4[C@@](C)(O)[C@H]3[C@H](O)[C@@H]12` [Oxytetracycline dihydrate] has a Z-score of 1.185. With `O=P1(NCCCl)OCCCN1CCCl` (stereo not shown) [Ifosfamide] the Z-score was −1.424. For `C=CCc1ccccc1OCC(O)CNC(C)C` (stereo not shown) [Alprenolol hydrochloride], the Z-score was 0.9239. With Trimipramine maleate salt the Z-score was −0.138. Work on `CCn1cc(C(=O)O)c(=O)c2cc(F)c(N3CCNCC3)nc21` [Enoxacin] yielded a Z-score of −0.7386. `Cc1ccnc(NS(=O)(=O)c2ccc(N)cc2)n1` [Sulfamerazine] showed a Z-score of −0.0984. `Cn1cnc2c1c(=O)[nH]c(=O)n2C` [Theobromine] gave a Z-score of 0.09359. `OCC(O)CN1CCN(c2ccccc2)CC1` (racemic) [Dropropizine (R,S)] showed a Z-score of 0.6396. For `OC(CCCN1CCCCC1)(c1ccccc1)c1ccccc1` [Diphenidol hydrochloride], the Z-score was −0.7294. In the case of `Clc1ccc(C(Cn2ccnc2)OCc2csc3c(Cl)cccc23)c(Cl)c1` (stereo not shown) [Sertaconazole nitrate], the Z-score is reported as −0.4658. `CC1(C)S[C@@H]2[C@H](NC(=O)Cc3ccccc3)C(=O)N2[C@H]1C(=O)O` [Benzylpenicillin sodium] showed a Z-score of −0.794. `CC/C(=C(\c1ccccc1)c1ccc(OCCN(C)C)cc1)c1ccccc1` [Tamoxifen citrate] showed a Z-score of −1.1882. With `COc1ccc(Cc2nccc3cc(OC)c(OC)cc23)cc1OC` [Papaverine hydrochloride] the Z-score was 9.542. `COc1ccc(CN(CCN(C)C)c2ccccn2)cc1` [Pyrilamine maleate] was tested, and the Z-score was −1.3015. `CC(C)NCC(O)c1ccc(NS(C)(=O)=O)cc1` (stereo not shown) [Sotalol hydrochloride] was tested, and the Z-score was 0.2363. Molecule `Cc1[nH]c(=O)c(C#N)cc1-c1ccncc1` [Milrinone] has a Z-score of −0.2851. `COc1nc(C)nc(Cl)c1N=C1NCCN1` [Moxonidine] gave a Z-score of −0.6893. Molecule `C=CCOc1ccccc1OCC(O)CNC(C)C` (stereo not shown) [Oxprenolol hydrochloride] has a Z-score of −0.2057. `C=C1C[C@]23C[C@@]1(O)CC[C@H]2[C@@]12C=C[C@H](O)[C@@](C)(C(=O)O1)[C@H]2[C@@H]3C(=O)O` [Gibberellic acid] showed a Z-score of 0.8089. `O=C(N[C@H](CO)[C@H](O)c1ccc([N+](=O)[O-])cc1)C(Cl)Cl` [Chloramphenicol] showed a Z-score of 1.318. Molecule `CN(C)CCOC(C)(c1ccccc1)c1ccccn1` (stereo not shown) [Doxylamine succinate] has a Z-score of 0.07172. In the case of `CC[N+](CC)(CC)CCC(O)(c1ccccc1)C1CCCCC1.[Cl-]` (stereo not shown) [Tridihexethyl chloride], the Z-score is reported as 0.01977. Molecule `CC(C)NC[C@@H](O)COc1ccc(CC(N)=O)cc1` [(R)-(+)-Atenolol] has a Z-score of 0.9856. `CCC(=O)O[C@]1(C(=O)SCF)[C@H](C)C[C@H]2[C@@H]3C[C@H](F)C4=CC(=O)C=C[C@]4(C)[C@@]3(F)[C@@H](O)C[C@@]21C` [Fluticasone propionate] gave a Z-score of −1.0154. In the case of `O=[N+]([O-])c1cc([As](=O)(O)O)ccc1O` [Roxarsone], the Z-score is reported as −0.5936. `Clc1ccccc1C(c1ccccc1)(c1ccccc1)n1ccnc1` [Clotrimazole] gave a Z-score of −1.6708. `NS(=O)(=O)c1cc(C2(O)NC(=O)c3ccccc32)ccc1Cl` (stereo not shown) [Chlorthalidone] showed a Z-score of −0.3195. `CCCCc1cc2ccccc2c(OCCN(C)C)n1` [Dimethisoquin hydrochloride] showed a Z-score of 0.4631. In the case of `CCN(CC)CCOCCOC(=O)C1(c2ccccc2)CCCC1` [Carbetapentane citrate], the Z-score is reported as 1.581. `CCN(CC)CCNC(=O)c1cc(Cl)c(N)cc1OC` [Metoclopramide monohydrochloride] showed a Z-score of −1.0824. Work on `CN(C(=O)CN(CCO)CC(=O)N(C)C(C)(C)Cc1ccccc1)C(C)(C)Cc1ccccc1` [Oxethazaine] yielded a Z-score of −0.9515. For `Nc1ccc(S(N)(=O)=O)cc1` [Sulfanilamide], the Z-score was 0.2959. `CC(C)Cc1ccc([C@H](C)C(=O)O)cc1` [S-(+)-ibuprofen] gave a Z-score of −1.4076. For `CCOc1ccc(Cc2nccc3cc(OCC)c(OCC)cc23)cc1OCC` [Ethaverine hydrochloride], the Z-score was 17.3528. In the case of `CC[N+](C)(CC)CCOC(=O)C1c2ccccc2Oc2ccccc21` [Methantheline bromide], the Z-score is reported as −0.7033. Work on `c1ccc(CC2=NCCN2)cc1` [Tolazoline hydrochloride] yielded a Z-score of 0.3256. In the case of `O=C(O)CN(CCN(CC(=O)O)CC(=O)O)CCN(CC(=O)O)CC(=O)O` [Pentetic acid], the Z-score is reported as 0.9077. `C=CC(N)CCC(=O)O` (stereo not shown) [Vigabatrin] showed a Z-score of −0.7771. In the case of `c1cncc(C2=NCCC2)c1` [Myosmine], the Z-score is reported as 0.265. `COc1cc(C(=O)OCCCN2CCCN(CCCOC(=O)c3cc(OC)c(OC)c(OC)c3)CC2)cc(OC)c1OC` [Dilazep dihydrochloride] was tested, and the Z-score was 0.1967. Work on `NCC1(CC(=O)O)CCCCC1` [Gabapentin] yielded a Z-score of −0.2478. `C#C[C@]1(O)CC[C@H]2[C@@H]3CCC4=CC(=O)CC[C@]4(C)[C@H]3CC[C@@]21C` [Ethisterone] gave a Z-score of −0.2541. In the case of `COc1ccc(C2CNC(=O)C2)cc1OC1CCCC1` (stereo not shown) [Rolipram], the Z-score is reported as −0.7794. `CNc1ncnc2c1ncn2[C@@H]1O[C@H](CO)[C@@H](O)[C@H]1O` [N6-methyladenosine] gave a Z-score of −0.5287. With `O=C1CC[C@@]2(O)[C@H]3Cc4ccc(O)c5c4[C@@]2(CCN3CC2CC2)[C@H]1O5` [Naltrexone hydrochloride dihydrate] the Z-score was −0.609. For `CN1C(C(=O)Nc2ccccn2)=C(O)c2ccccc2S1(=O)=O` [Piroxicam], the Z-score was 0.7254. In the case of `CC[N+](C)(C)c1cccc(O)c1` [Edrophonium chloride], the Z-score is reported as 0.4533. `CCn1cc(C(=O)O)c(=O)c2cnc(N3CCCC3)nc21` [Piromidic acid] was tested, and the Z-score was 0.2604. Work on `O=C(O)/C=C/c1ccc(O)c(O)c1` [Caffeic acid] yielded a Z-score of −1.7446. In the case of `NS(=O)(=O)c1cc(Cl)c(Cl)c(S(N)(=O)=O)c1` [Dichlorphenamide], the Z-score is reported as 0.1624. `CNC(=O)c1c(I)c(C(=O)NCC(=O)Nc2c(I)c(C(=O)O)c(I)c(C(=O)NCCO)c2I)c(I)c(N(C)C(C)=O)c1I` [Ioxaglic acid] showed a Z-score of −0.54. Work on Antimycin A yielded a Z-score of 30.555. Molecule `CC(C)(C)NCC(O)COc1cccc2c1CCC(=O)N2` (stereo not shown) [Carteolol hydrochloride] has a Z-score of −0.6876. Molecule `C[C@@H]1CCC[C@H](C)N1.Cl` [(cis-) Nanophine] has a Z-score of −1.4074. `CC1Cc2ccccc2N1NC(=O)c1ccc(Cl)c(S(N)(=O)=O)c1` (stereo not shown) [Indapamide] gave a Z-score of −0.6747. Molecule `Cc1ncc([N+](=O)[O-])n1CCO` [Metronidazole] has a Z-score of 0.716. Work on `CC[C@H]1CN2CC[C@H]1C[C@H]2[C@H](O)c1ccnc2ccc(OC)cc12` [Hydroquinine hydrobromide hydrate] yielded a Z-score of 1.2243. Work on `Cc1oncc1C(=O)Nc1ccc(C(F)(F)F)cc1` [Leflunomide] yielded a Z-score of 1.258.
